In ChEMBL document CHEMBL4665696, “Highly Modified Lanostane Triterpenes from the Wood-Rot Basidiomycete Ganoderma colossus: Comparative Chemical Investigations of Natural and Artificially Cultivated Fruiting Bodies and Mycelial Cultures” (J Nat Prod, 2020):
Converted amounts (≈) assume the structure as drawn.

What was measured:
Vero = assay: Cytotoxicity against African green monkey Vero cells by green fluorescent protein-based assay; type: cell-based; conditions: Chlorocebus sabaeus
[1] = system: Mycobacterium tuberculosis; assay: Antitubercular activity against Mycobacterium tuberculosis H37Ra by green fluorescent protein microplate assay; type: functional
Plasmodium falciparum = assay: Antimalarial activity against Plasmodium falcipuram K1 by microculture radioistope technique; type: functional, organism-based

Row | Compound | IC50 (Vero) [µg/mL] | MIC [1] [µg/mL] | IC50 (Plasmodium falciparum) [µg/mL]
1 | CC(=O)OC[C@@]1(CCC(=O)O)C2=C(CC[C@H]1C(C)(C)O)[C@]1(C)CC[C@H]([C@H](C)[C@H]3OC(=O)C(C)=C[C@@H]3O)[C@@]1(C)CC2 | > 50 | > 50 | 5 (≈ 8.92 µM)
2 | CC1=CC[C@@H]([C@@H](C)[C@H]2CC[C@@]3(C)C4=C(CC[C@]23C)[C@@]2(C)CCC(=O)C(C)(C)[C@@H]2CC4)OC1=O | > 50 | > 50 | 3.6 (≈ 7.95 µM)
3 | CC(=O)O[C@@H](C/C=C(/C)C(=O)O)[C@@H](C)[C@H]1CC[C@@]2(C)C3=CC[C@@H](C(C)(C)OC(C)=O)[C@]4(CCC(=O)OC4)C3=CC[C@]12C | > 50 | > 50 | 5.8 (≈ 9.92 µM)
4 | Cl.O[C@@H](c1cc(C(F)(F)F)nc2c(C(F)(F)F)cccc12)[C@H]1CCCCN1 |  |  | > 10
5 | Cc1c2ccncc2c(C)c2c1[nH]c1ccccc12 [ELLIPTECINE] | 0.87 (≈ 3.53 µM) |  | 
6 | CC(=O)OC[C@]12CCC(=O)OC(C)(C)[C@@H]1CCC1=C2CC[C@]2(C)[C@@H]([C@H](C)[C@H](C/C=C(/C)C(=O)O)OC(C)=O)CC[C@@]12C | > 50 | > 50 | > 10
7 | C[C@H]1[C@@H](O)O[C@@H]2O[C@@]3(C)CC[C@H]4[C@H](C)CC[C@@H]1[C@@]24OO3 [ARTENIMOL] |  |  | > 10
8 | CC(=O)OC[C@@]1(CCC(=O)O)C2=C(CC[C@H]1C(C)(C)O)[C@]1(C)CC[C@H]([C@H](C)[C@H](C/C=C(/C)C(=O)O)OC(C)=O)[C@@]1(C)CC2 | > 50 | > 50 | > 10
9 | CC(=O)O[C@@H](C/C=C(/C)C(=O)O)[C@@H](C)[C@H]1CC[C@@]2(C)C3=C(C=C4C=CC(=O)OC(C)(C)[C@@H]4CC3)CC[C@]12C | 49.2 (≈ 93.8 µM) | > 50 | 0.03 (≈ 0.0572 µM)
10 | CC(=O)OC[C@]12CCC(=O)OC(C)(C)[C@@H]1CC=C1C2=CC[C@]2(C)[C@@H]([C@H](C)[C@H](C/C=C(/C)C(=O)O)OC(C)=O)CC[C@@]12C | > 50 | > 50 | > 10
11 | CC(=O)OC[C@@]1(CCC(=O)O)C2=CC[C@]3(C)[C@@H]([C@H](C)[C@H](C/C=C(/C)C(=O)O)OC(C)=O)CC[C@@]3(C)C2=CC[C@H]1C(C)(C)O | > 50 | > 50 | 1.4 (≈ 2.32 µM)
12 | CC(=O)O[C@@H]1C[C@H]([C@H](C)[C@@H]2CC=C(C)C(=O)O2)[C@@]2(C)CCC3=C(CC[C@H]4C(C)(C)OC(=O)C=C[C@]45C[C@H]35)[C@]12C | 8.5 (≈ 15.8 µM) | 25 (≈ 46.6 µM) | 0.001 (≈ 0.00186 µM)
13 | CC1=CC[C@@H]([C@@H](C)[C@H]2CC[C@@]3(C)C4=C(CC[C@]23C)[C@]23CC[C@H](OC2=O)C(C)(C)[C@@H]3CC4)OC1=O | > 50 | > 50 | > 10
14 | CC(=O)OC[C@@]1(CCC(=O)O)C2=C(CC[C@H]1C(C)(C)O)[C@]1(C)CC[C@H]([C@H](C)[C@@H]3CC=C(C)C(=O)O3)[C@@]1(C)CC2 | > 50 | 25 (≈ 45.9 µM) | 8.2 (≈ 15.1 µM)
15 | NNC(=O)c1ccncc1 [ISONIAZID] |  | 0.047 (≈ 0.343 µM) | 
16 | CC(=O)OC[C@]12CC[C@H](O)C(C)(C)[C@@H]1CCC1=C2CC[C@]2(C)[C@@H]([C@H](C)[C@H](C/C=C(/C)C(=O)O)OC(C)=O)CC[C@@]12C | > 50 | > 50 | > 10
